Reference: US20070172521A1, “Levetiracetam formulations and methods for their manufacture” (priority 2006, published 2007)

Experiment: Particle size of the levetiracetam used
Format: physicochemical
Details: levetiracetam used in the examples
Method: In order to avoid possible handling difficulties, the levetiracetam used preferably comprises particles having a particle size distribution such that d(0.1) is Not Less Than (NLT) about 0.6 μm, d(0.5) is from about 10 to about 30 μm, and d(0.9) is Not More Than (NMT) about 65 μm. In addition, the Bulk Density is NLT 0.2 g/cm^3, and the Tapped Density is NLT 0.35 g/cm^3. […] To minimize the impact of particle size on the levetiracetam release rate, a disintegrant was added intra- and extra-granularly. Although the resulting dissolution rate is somewhat slower than that of the commercial product, the product of present invention is found to be bio-equivalent to the marketed product in both fasting and food bio-equivalent studies.

Particle size: about 50 μm
Structure (SMILES): CC[C@@H](C(N)=O)N1CCCC1=O [levetiracetam, (−)-(S)-(alpha)-ethyl-2-oxo-1-pyrrolidine acetamide]
